This is an account of results in PubChem BioAssay (NCI).

SMILES strings stand for the structures. Values joined by “and” are separate entries in the source; they are usually repeats but may differ in a detail not shown here. Identical values can stand only once.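 Dose response: 5 concentrations. Exposure: 48 h. Format: 96-well plates. Endpoint: linear interpolation; highest concentration if not reached. At the GI50, growth is halved. TGI denotes the concentration required for complete inhibition of growth.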

Some test systems named below: OVCAR-5 ovarian; NCI-H522 lung; CAKI-1 renal; RXF 393 renal; HCT-116 colon; HCT-15 colon; NCI-H226 lung; SK-MEL-28 melanoma; MOLT-4 leukemia; K-562 leukemia; IGROV1 ovarian.
Experiment in all cases: NCI tumour cell line growth inhibition, 48 h

Take `O=CC(O)C(O)C(O)COc1cc(CO)cc2c1C(=O)c1ccccc1C2=O` (centres undefined): the TGI with OVCAR-5 ovarian, in the test with NCI-H522 lung, in the test on CAKI-1 renal, in the test with RXF 393 renal, in the test with HCT-116 colon and in the test with HCT-15 colon was > 100 µM throughout. Besides, the TGI in the test with NCI-H226 lung, with SK-MEL-28 melanoma, in the test with MOLT-4 leukemia, in the test with K-562 leukemia and in the test with IGROV1 ovarian was > 100 µM throughout.

On to `C/C(=C\CNc1ncnc2nc(Cl)[nH]c12)CO`, for which the TGI in the test with OVCAR-5 ovarian, in the test with NCI-H522 lung, with CAKI-1 renal, in the test with RXF 393 renal, in the test on HCT-116 colon and in the test with NCI-H226 lung was > 100 µM each time. The TGI in the test with SK-MEL-28 melanoma, with MOLT-4 leukemia, with K-562 leukemia and with IGROV1 ovarian was > 100 µM each time.

Consider `CN(C)C/C=C(/c1ccc(Br)cc1)c1cccnc1`, for which the TGI in the test on OVCAR-5 ovarian, with NCI-H522 lung, with CAKI-1 renal, in the test on RXF 393 renal, in the test on HCT-116 colon and in the test with HCT-15 colon was > 100 µM in each case. Moreover, the TGI in the test on NCI-H226 lung is > 100 µM; with SK-MEL-28 melanoma, 34.1 µM; in the test on MOLT-4 leukemia it was > 100 µM; in the test with K-562 leukemia it was > 100 µM; in the test with IGROV1 ovarian, > 100 µM.

With `O=c1oc2c(ccc3occc32)c(N2CCCCC2)c1-c1ccccc1`, the TGI in the test on OVCAR-5 ovarian, with NCI-H522 lung, in the test on RXF 393 renal, in the test with HCT-116 colon, in the test on HCT-15 colon and with NCI-H226 lung was > 100 µM each time. Also, the TGI in the test with SK-MEL-28 melanoma was > 100 µM; in the test on MOLT-4 leukemia, > 31.7 µM; with K-562 leukemia, > 100 µM; in the test on IGROV1 ovarian, > 100 µM. Further, in the test on NCI-H226 lung, the GI50 is > 100 µM.

`CCN(CC)/[N+]([O-])=N/OC`: the TGI in the test on OVCAR-5 ovarian, in the test with NCI-H522 lung, in the test with RXF 393 renal, in the test with HCT-116 colon, in the test with HCT-15 colon and in the test on NCI-H226 lung was > 100 µM each time. Further, the TGI in the test on SK-MEL-28 melanoma, in the test with MOLT-4 leukemia, in the test with K-562 leukemia and with IGROV1 ovarian was > 100 µM each time.

For `CCOC(=O)C(=CNC(Cc1c[nH]c2ccccc12)C(=O)OC)C(=O)OCC` (centres undefined), the TGI in the test with NCI-H522 lung, in the test with CAKI-1 renal, with HCT-15 colon, in the test with NCI-H226 lung, in the test with SK-MEL-28 melanoma and in the test on MOLT-4 leukemia was > 100 µM throughout. For the same molecule, the TGI in the test with K-562 leukemia and in the test with IGROV1 ovarian was > 100 µM each time.

As for `CC(C)(C)OC(=O)N1C(C2=COc3ccccc3O2)=COc2cccnc21`, the TGI was 3.4 µM in the test on OVCAR-5 ovarian; 3.49 µM in the test on NCI-H522 lung; 6.82 µM in the test with CAKI-1 renal; 3.06 µM in the test with RXF 393 renal; 4.98 µM in the test on HCT-116 colon; 3.46 µM in the test with HCT-15 colon. The TGI in the test on NCI-H226 lung was 4.31 µM; with SK-MEL-28 melanoma, 3.47 µM; with MOLT-4 leukemia, 7 µM; with K-562 leukemia, 5.33 µM; in the test with IGROV1 ovarian, 3.35 µM.

On to `NCCCCN`, for which the TGI in the test with OVCAR-5 ovarian is > 100 µM; in the test with NCI-H522 lung, > 100 µM; with CAKI-1 renal, 30.2 µM; with RXF 393 renal, > 100 µM; in the test with HCT-116 colon, > 100 µM; in the test with HCT-15 colon it was > 100 µM. In addition, the TGI in the test on NCI-H226 lung, in the test on SK-MEL-28 melanoma, in the test on MOLT-4 leukemia, with K-562 leukemia and in the test with IGROV1 ovarian was > 100 µM throughout.

Turning to `NC(N)=NS(=O)(=O)c1ccc(Nc2c3ccccc3nc3c(C(=O)N4CCN(CCO)CC4)ccc(Cl)c23)cc1`, the TGI with OVCAR-5 ovarian, in the test on CAKI-1 renal, in the test on RXF 393 renal, with HCT-116 colon, in the test with HCT-15 colon and in the test on NCI-H226 lung was > 100 µM throughout. Also, the TGI in the test on SK-MEL-28 melanoma, in the test with MOLT-4 leukemia, in the test on K-562 leukemia and with IGROV1 ovarian was > 100 µM in each case.

`C=C1CCCC(C)(C)[C@@H]1CC/C(C)=C/Cn1c2cccc(=O)c-2nc2ccccc21`: the GI50 was 27.1 µM with OVCAR-5 ovarian; 6.35 µM with NCI-H522 lung; 2.55 µM in the test with HCT-116 colon; 4.34 µM in the test on HCT-15 colon; 21.2 µM with NCI-H226 lung; 1.82 µM in the test with SK-MEL-28 melanoma. The GI50 in the test with MOLT-4 leukemia was 5.55 µM; in the test on IGROV1 ovarian, 2.71 µM. Further, the TGI in the test on NCI-H522 lung was > 100 µM; in the test on CAKI-1 renal it was 10.7 µM; in the test on HCT-116 colon, 6.62 µM and 2.73 µM; in the test with NCI-H226 lung, > 100 µM and 21.6 µM; with SK-MEL-28 melanoma, 3.46 µM and 17.6 µM; in the test with MOLT-4 leukemia, 70.7 µM and 9.78 µM. The TGI was > 100 µM in the test with K-562 leukemia; 8.87 µM and 6.11 µM with IGROV1 ovarian.

For `O=C(N/N=C\c1ccc([N+](=O)[O-])cc1)Nc1ccccc1`, the TGI with OVCAR-5 ovarian, in the test on CAKI-1 renal, in the test with RXF 393 renal, with HCT-116 colon, in the test with HCT-15 colon and with NCI-H226 lung was > 100 µM throughout. The TGI in the test on SK-MEL-28 melanoma, with MOLT-4 leukemia, in the test with K-562 leukemia and in the test with IGROV1 ovarian was > 100 µM in each case.

`O=P(O)(O)OP(=O)(O)O`: the TGI with OVCAR-5 ovarian, in the test on NCI-H522 lung, with CAKI-1 renal, with RXF 393 renal, with HCT-116 colon and in the test with HCT-15 colon was > 100 µM each time. Also, the TGI in the test on SK-MEL-28 melanoma, in the test with MOLT-4 leukemia, with K-562 leukemia and with IGROV1 ovarian was > 100 µM each time.
